Results from patent US20150126581A1, “MicroRNAs and Uses Thereof” (The University of Western Australia, priority 2012, published 2015).

Experiments:
Format in all cases: cell-based, human
DOHH protein = experiment: Western blot of DOHH protein in transfected DU145 cells; details: 48 h after transfection
Procedure: The effect of hsa-miR-331-3p and/or hsa-miR-642-5p on endogenous DOHH expression in DU145 prostate cancer cells was assessed by co-transfecting the cells with pre-miR-331-3p, pre-miR-642-5p, or pre-miR-NC essentially as described in Examples 2 and 3, and DOHH mRNA levels were assessed by qRT-PCR of DOHH mRNA. Parallel Western blotting experiments were performed to assess DOHH protein levels, as also described above.

eIF5A = experiment: Immunoblot of cytoplasmic eIF5A in transfected HeLa cells; details: HeLa cells transiently over expressing miRNA, total anti-eIF5A antibody, data not shown
Excerpt: Endogenous DOHH mRNA was repressed by both hsa-miR-331-3p and hsa-miR-642-5p in HeLa cells (FIG. 3A).

[1] = test system: 182 nucleotide element of the DOHH 3′-UTR; experiment: Reporter gene assay in HeLa cells with 3′UTR, 3′UTR ELEMENT and 3′UTR MINUS ELEMENT constructs; details: for Reporter gene expression from “3′UTR MINUS ELEMENT” construct: 182 nucleotide element deleted; for Firefly luciferase expression from “3′UTR” and “3′UTR ELEMENT” constructs: versus NC
Procedure: To confirm that the regions in the 3′UTR of DOHH that were predicted to be targeted by hsa-miR-331-3p and hsa-miR-642-5p (see Example 1 and FIG. 1) were indeed targeted, reporter constructs with and without a 182 nucleotide element containing the predicted targeted regions were generated and used in reporter gene assays.
Briefly, three reporter gene constructs were prepared using a pmiR-REPORT vector (Ambion) as the backbone. The first construct was the construct described in Example 2, containing the DOHH 3′-UTR downstream of the firefly luciferase reporter gene (labelled “3′UTR”). The second construct contained a DOHH 3′-UTR in which the 182 base pair element had been deleted, downstream of the firefly luciferase reporter gene (labelled “3′UTR MINUS ELEMENT”). The third construct contained the 182 nucleotide element downstream of the firefly luciferase reporter gene (labelled “3′UTR ELEMENT”) (FIG. 6A).
In the first assay, performed essentially as described in Example 2 by transfection of HeLa cells, the firefly luciferase expression from the “3′UTR” and “3′UTR ELEMENT” constructs was assessed in the presence of hsa-miR-331-3p, hsa-miR-642-5p, a combination of the two or vehicle only (NC).
In the second assay performed by transfecting HeLa cells, the expression of the reporter gene from the “3′UTR MINUS ELEMENT” construct was assessed in the presence of hsa-miR-331-3p and/or hsa-miR-642-5p.

DOHH 3′-UTR = experiment: Dual luciferase reporter gene assay in HeLa cells, DOHH 3′-UTR reporter; details: 1-2 nM pre-miRNA, 24 h after transfection, compared to miR-NC
Excerpt: Synthetic miRNA precursor molecules corresponding to human miR-331-3p (Pre-miR miRNA Precursor Product ID: PM10881), human miR-642-5p (Pre-miR miRNA Precursor Product ID: PM11477) and a negative control miRNA (miR-NC; Pre-miR miRNA Precursor Negative Control #1, Product ID: AM 17110) were obtained from Ambion.
The dual luciferase (firefly and Renilla) reporter miRNA target clone for the DOHH 3′-UTR (catalogue no. HmiT020194-MT01) and the negative control vector (catalogue no. CmiT000001-MT01), both based on the PETZ-MT01 vector containing a SV40 promoter upstream of the hLuc gene, and a CMV reporter upstream of the hRLuc gene, were sourced from Genecopoeia™ (Rockville, USA). […]
HeLa cells were seeded in 12-well plates and co-transfected using Lipofectamine 2000 (Invitrogen) with 100 ng of either the negative control (empty), DOHH 3′-UTR or ERBB-2 3′-UTR reporter construct (Genecopoeia™) and 1-2 nM final concentration of pre-miR-331-3p, pre-miR-642-5p, a combination of pre-miR-331-3p and pre-miR-642-5p, or pre-miR-NC per well. Lysates were assayed for Firefly and Renilla luciferase activities 24 h after transfection using the Dual Luciferase Reporter Assay System (Promega) and a Fluostar OPTIMA microplate reader (BMG Labtech), and firefly luciferase activities normalised to Renilla luciferase activities to obtain relative reporter gene activity.

HeLa cells = experiment: xCELLigence cell proliferation assay; details: 5000 transfected cells, monitored over 90 hour period, compared to miRNA negative control
Procedure: The effect of transient miRNA over-expression in HeLa cells on cell proliferation was investigated using the xCELLigence™ System (Roche). Briefly, HeLa cells were grown and transfected with the miRNA negative control, hsa-miR-331-3p and/or hsa-miR-642-5p precursors as described above. Transfected HeLa cells were then trypsinised and counted using the Countess™ Automated cell counter and 5000 transiently transfected HeLa cells were plated in quadruplicate into 16 well E-plates. The cells monitored over a 90 hour period in real time according to the manufacturer's instructions.

DU145 cells = experiment: CellTiter 96 Aqueous One cell proliferation assay in DU145 cells with or without mimosine; details: 5 days post transfection, compared with miR-NC, no mimosine
Excerpt: The functional significance of hsa-miR-331-3p and/or hsa-miR-642-5p overexpression in DU145 cells was then investigated. DU145 cells were transfected with pre-miR-331-3p, pre-miR-642-5p, or pre-miR-NC as described above. […] Using the Bliss model (Bliss (1939) Ann Appl. Biol 26:585-615), synergy occurs when the observed fractional inhibition for the combination of hsa-miR-331-3p and/or hsa-miR-642-5p and mimosine (defined as Eobserved) exceeds the sum of the combined miRNA effect and the mimosine effect (defined as EBliss) (Table 3).

| Substance | DOHH protein expression (Western blot) (DOHH protein) | Cytoplasmic levels of eIF5A (eIF5A) | Reporter gene expression from “3′UTR MINUS ELEMENT” construct [1] | Firefly luciferase expression from “3′UTR” and “3′UTR ELEMENT” constructs [1] | DOHH 3′-UTR reporter activity (firefly normalised to Renilla luciferase) (DOHH 3′-UTR) | HeLa cell proliferation (xCELLigence) (HeLa cells) | DU145 cell proliferation (DU145 cells) |
| --- | --- | --- | --- | --- | --- | --- | --- |
| hsa-miR-642-5p: human miR-642-5p, 5′-GUCCCUCUCCAAAUGUGUCUUG-3′ (SEQ ID NO:5); transfected as Ambion Pre-miR precursor PM11477 (listed as RNA, chemistry not given here; listed as Homo sapiens) | inhibited expression of DOHH protein | unchanged cytoplasmic levels of eIF5A | no repression of the reporter gene | repression of firefly luciferase expression | increased effect on the DOHH 3′UTR compared to the effect of hsa-miR-331-3p | inhibit the proliferation of HeLa cells to similar degrees | significantly reduced DU145 cell proliferation |
| hsa-miR-331-3p: human miR-331-3p, 5′-GCCCCUGGGCCUAUCCUAGAA-3′ (SEQ ID NO:4); transfected as Ambion Pre-miR precursor PM10881 (listed as RNA, chemistry not given here; listed as Homo sapiens) | inhibited expression of DOHH protein | unchanged cytoplasmic levels of eIF5A | no repression of the reporter gene | repression of firefly luciferase expression | significant reduction in reporter activity | inhibit the proliferation of HeLa cells to similar degrees | significantly reduced DU145 cell proliferation |
